The values below come from patent US10584115B2, “Substituted pyridine and pyrazine BMI-1 inhibitors” (PTC Therapeutics, Inc., priority 2013, dated 2020).

Structures are written as SMILES.

In the first test the test system is Bmi-1 protein. Kind of test: Sandwich ELISA Assay (Bmi-1 protein level in HT-1080 cells after compound treatment). It is filed as cell-based. As to conditions: Table 1, Bmi-1 sandwich ELISA, read-out: ELISA EC50 value for Bmi-1 protein. Here is the method:
Cell Seeding and Compound Treatment (Day 1):
HT-1080 cells were seeded at 8000 cells/well (50 μL) in 96-well tissue culture plates. After the cells became adherent (3-4 hours), 2× diluted stocks of test compounds in 50 μL DMEM containing 1% DMSO (final DMSO concentration was 0.5%) were added and the plates were incubated at 37° C. under 5% CO2 for 40-48 hours.
ELISA Plate First Antibody Preparation (Day 2):
The First Antibody (Millipore Mouse, monoclonal to mouse Bmi-1, clone F6, catalog #05-637) diluted to […] in PBS was added (100 μL) to each well of a Nunc MaxiSorp 96-well ELISA plate. The plate was covered with a plate seal and allowed to stand overnight.
Cell Lysate Preparation (Day 3):
Fresh Lysis buffer (1×) was prepared on the day of the assay as follows: 1 mM EDTA, 150 mM NaCl, 0.5% Triton-X 100, 10 mM NaF, 20 mM B-Glycerophosphate, 1 mM DTT (in PBS, pH 7.2-7.4) and HALT protease inhibitor cocktail (lx) (Pierce #78410).
A standard curve was prepared at the following Bmi-1 concentrations: 8000, 4000, 2000, 1000, 500, 250, 125 and 0 pg/mL. The Bmi-1 Recombinant Protein Standard (Novus Biologicals PCGF4 Recombinant Protein (P01), catalog # H00000648-P01) used to prepare the standard curve was stored at −80° C. On first thaw, the Recombinant Protein Standard was diluted to 10 μg/L in Blocking Buffer (1% BSA in PBS; BSA: Fisher Scientific Catalog #1600-100). Aliquots were taken and refrozen at −80° C. The aliquots may be kept at 4° C. and reused after first thaw, but only within 1-2 weeks. The Recombinant Protein Standard contains a GST-fusion tag that appears at approximately 70 Kda on Western Blot.
The prepared ELISA plate was washed 3× with Wash Buffer (0.05% Tween-20 in PBS). The final wash was removed from the plate and the plate was blotted dry. Blocking Buffer (300 μL) (1% BSA in PBS) was added to each well. The plate was covered with a plate seal and incubated at room temperature for 1 hour. The blocked plate was washed 3× with Wash Buffer, then the final wash was removed and the plate was blotted dry. The previously prepared samples and standards were added ([…]) and the plate was covered with a plate seal and incubated at 4° C. overnight.
The prepared ELISA plate was removed from incubation and allowed to stand at room temperature for 30 minutes, then washed and blotted dry. The Second Antibody (Cell Signaling Rabbit anti-Bmi-1, Cat #2830) diluted to 1:600 in Blocking Buffer was added (100 μL) to each well, except as needed for background control wells. The plate was covered with a plate seal and incubated for 1.5 hrs at room temperature.
The ELISA plate was washed and blotted dry as previously described. The Third Antibody (Cell Signaling HRP conjugated anti-rabbit IgG (CellSignaling, Cat #:7074) diluted to 1:300 in Blocking Buffer was added (100 μL) to each well, except as needed for background control wells. The plate was incubated for 1 hr at room temperature.
The plate was washed and blotted dry, then a previously prepared TMB substrate (TMB substrate kit, Pierce catalog #34021) (prepared by mixing kit reagents 1:1) (100 μL) was added per well. The plate was incubated for 20-30 minutes at room temperature in the dark, then Stop Solution (2 M sulfuric acid in water) (50 μL) was added per well. The plates were read at OD450 (experimental) and OD570 (reference).
On to `Cc1nc2ccccc2n1-c1cc(C#N)cc(Nc2ccc(OC(F)(F)F)cc2)n1` [Cpd 136, 2-(2-methyl-1H-benzimidazol-1-yl)-6-{[4-(trifluoromethoxy)phenyl]amino}pyridine-4-carbonitrile], for which the half-maximal effective concentration (EC50) (as a rule, the concentration giving half of the maximal effect) is 10 to 100 nM.
Take `FC(F)(F)c1ccc(Nc2cncc(-c3c(C(F)(F)F)nc4ccccn34)n2)nc1` [Cpd 190, 6-[2-(trifluoromethyl)imidazo[1,2-a]pyridin-3-yl]-N-[5-(trifluoromethyl)pyridin-2-yl]pyrazin-2-amine]: the EC50 was 10 to 100 nM.
Same read-out and setting: to `COc1ncc(Nc2cncc(-c3c(C(F)(F)F)nc4ccccn34)n2)cn1` [Cpd 201, 2-methoxy-N-{6-[2-(trifluoromethyl)imidazo[1,2-a]pyridin-3-yl]pyrazin-2-yl}pyrimidin-5-amine] belongs 1 to 10 nM.
Same read-out and setting: to `Fc1cc(Nc2cncc(-c3c(C(F)(F)F)nc4ccccn34)n2)ccc1C(F)(F)F` [Cpd 208, N-[3-fluoro-4-(trifluoromethyl)phenyl]-6-[2-(trifluoromethyl)imidazo[1,2-a]pyridin-3-yl]pyrazin-2-amine] belongs 10 to 100 nM; to `N#Cc1cc(Nc2ccc(OC(F)F)cc2)nc(-c2c(C(F)(F)F)nc3ccccn23)c1` [Cpd 217, 2-{[4-(difluoromethoxy)phenyl]amino}-6-[2-(trifluoromethyl)imidazo[1,2-a]pyridin-3-yl]pyridine-4-carbonitrile], 1 to 10 nM; to `OCc1cc(Nc2ccc(C(F)(F)F)cc2)nc(-c2c(C(F)(F)F)nc3ccccn23)c1` [Cpd 219, (2-[2-(trifluoromethyl)imidazo[1,2-a]pyridin-3-yl]-6-{[4-(trifluoromethyl)phenyl]amino}pyridin-4-yl)methanol], 10 to 100 nM.
Still for that read-out and setting: to `FC(F)Oc1ccc(Nc2cncc(-c3c(C(F)(F)F)nc4n3CCCC4)n2)cc1` [Cpd 233, N-[4-(difluoromethoxy)phenyl]-6-[2-(trifluoromethyl)-5,6,7,8-tetrahydroimidazo[1,2-a]pyridin-3-yl]pyrazin-2-amine] belongs 1 to 10 nM.
Turning to `FC(F)(F)Oc1ccc(Nc2cncc(-c3c(C(F)(F)F)nc4n3CCCC4)n2)cc1` [Cpd 234, N-[4-(trifluoromethoxy)phenyl]-6-[2-(trifluoromethyl)-5,6,7,8-tetrahydroimidazo[1,2-a]pyridin-3-yl]pyrazin-2-amine], the EC50 is 10 to 100 nM.
On to `N#Cc1cc(Nc2ccc(OC(F)F)cc2)nc(-c2c(C(F)(F)F)nc3n2CCCC3)c1` [Cpd 237, 2-{[4-(difluoromethoxy)phenyl]amino}-6-[2-(trifluoromethyl)-5,6,7,8-tetrahydroimidazo[1,2-a]pyridin-3-yl]pyridine-4-carbonitrile], for which the EC50 lay in the range of 1 to 10 nM.
On the same count and under the same terms, next, `N#Cc1cc(Nc2ccc(OC(F)(F)F)cc2)nc(-c2c(C(F)(F)F)nc3n2CCCC3)c1` [Cpd 238, 2-{[4-(trifluoromethoxy)phenyl]amino}-6-[2-(trifluoromethyl)-5,6,7,8-tetrahydroimidazo[1,2-a]pyridin-3-yl]pyridine-4-carbonitrile]: 100 to 3000 nM; `CC(N)c1ccc(Nc2cc(C#N)cc(-c3c(C(F)(F)F)nc4ccccn34)n2)cc1` (stereo not drawn) [Cpd 257, 2-(4-(1-aminoethyl)phenylamino)-6-(2-(trifluoromethyl)imidazo[1,2-a]pyridin-3-yl)isonicotinonitrile]: 100 to 3000 nM.
Same read-out and setting: to `Cc1cnc(C)n1-c1cncc(Nc2ccc(C(F)(F)F)cc2)n1` [Cpd 355, 6-(2,5-dimethyl-1H-imidazol-1-yl)-N-[4-(trifluoromethyl)phenyl]pyrazin-2-amine] belongs 100 to 3000 nM; to `CCc1cnc(C)n1-c1cncc(Nc2ccc(C(F)(F)F)cc2)n1` [Cpd 372, 6-(5-ethyl-2-methyl-1H-imidazol-1-yl)-N-[4-(trifluoromethyl)phenyl]pyrazin-2-amine], 100 to 3000 nM.
The same measure, in the same setting: to `Cc1cc2nc(C)n(-c3cc(C#N)cc(Nc4ccc(C(F)(F)F)cc4)n3)c2cc1C` [Cpd 389, 2-{[4-(trifluoromethyl)phenyl]amino}-6-(2,5,6-trimethyl-1H-benzimidazol-1-yl)pyridine-4-carbonitrile] belongs 100 to 3000 nM; to `CCO/C=C\c1cn(-c2cncc(Nc3ccc(C(F)(F)F)cc3)n2)c(C)n1` [Cpd 391, 6-{4-[(Z)-2-ethoxyethenyl]-2-methyl-1H-imidazol-1-yl}-N-[4-(trifluoromethyl)phenyl]pyrazin-2-amine], 100 to 3000 nM; to `CCc1ccc2nc(C)n(-c3cncc(Nc4ccc(C(F)(F)F)cc4)n3)c2c1` [Cpd 392, 6-(6-ethyl-2-methyl-1H-benzimidazol-1-yl)-N-[4-(trifluoromethyl)phenyl]pyrazin-2-amine], 100 to 3000 nM.
`Cc1cc(C)c2nc(C)n(-c3cncc(Nc4ccc(C(F)(F)F)cc4)n3)c2c1` [Cpd 421, N-[4-(trifluoromethyl)phenyl]-6-(2,4,6-trimethyl-1H-benzimidazol-1-yl)pyrazin-2-amine]: the EC50 lay within 10 to 100 nM.
On the same count and under the same terms, next, `Cc1nc2c(F)cccc2n1-c1cc(C#N)cc(Nc2ccc(C(F)(F)F)cc2)n1` [Cpd 435, 2-(4-fluoro-2-methyl-1H-benzimidazol-1-yl)-6-{[4-(trifluoromethyl)phenyl]amino}pyridine-4-carbonitrile]: 10 to 100 nM; `Cc1nc2c(F)cccc2n1-c1cc(C#N)cc(Nc2ccc(OC(F)F)cc2)n1` [Cpd 436, 2-{[4-(difluoromethoxy)phenyl]amino}-6-(4-fluoro-2-methyl-1H-benzimidazol-1-yl)pyridine-4-carbonitrile]: 10 to 100 nM; `Cc1nc2c(F)cc(F)cc2n1-c1cc(C#N)cc(Nc2ccc(C(F)(F)F)cc2)n1` [Cpd 447, 2-(4,6-difluoro-2-methyl-1H-benzimidazol-1-yl)-6-{[4-(trifluoromethyl)phenyl]amino}pyridine-4-carbonitrile]: 10 to 100 nM.
The same measure, in the same setting: to `Cc1nc2c(F)cc(F)cc2n1-c1cc(C#N)cc(Nc2ccc(OC(F)F)cc2)n1` [Cpd 448, 2-{[4-(difluoromethoxy)phenyl]amino}-6-(4,6-difluoro-2-methyl-1H-benzimidazol-1-yl)pyridine-4-carbonitrile] belongs 10 to 100 nM.

Staying with this test, now noted: read-out: ELISA EC50 value for Bmi-1 protein, Table 1, Bmi-1 sandwich ELISA.
As to `NC(=O)c1cc(Nc2ccc(C(F)(F)F)cc2)nc(-c2c(C(F)(F)F)nc3ccccn23)c1` [Cpd 189, 2-[2-(trifluoromethyl)imidazo[1,2-a]pyridin-3-yl]-6-{[4-(trifluoromethyl)phenyl]amino}pyridine-4-carboxamide], the EC50 lay in the range of 10 to 100 nM.
On the same count and under the same terms, next, `Cc1nc2ccccc2n1-c1cc(C(N)=O)cc(Nc2ccc(C(F)(F)F)cc2)n1` [Cpd 203, 2-(2-methyl-1H-benzimidazol-1-yl)-6-{[4-(trifluoromethyl)phenyl]amino}pyridine-4-carboxamide]: 100 to 3000 nM; `FC(F)(F)c1ccc(Nc2cncc(-c3c(C(F)(F)F)nc4n3CCCC4)n2)cc1` [Cpd 232, N-[4-(trifluoromethyl)phenyl]-6-[2-(trifluoromethyl)-5,6,7,8-tetrahydroimidazo[1,2-a]pyridin-3-yl]pyrazin-2-amine]: 1 to 10 nM; `N#Cc1cc(Nc2ccc(C(F)(F)F)cc2)nc(-c2c(C(F)(F)F)nc3n2CCCC3)c1` [Cpd 236, 2-{[4-(trifluoromethyl)phenyl]amino}-6-[2-(trifluoromethyl)-5,6,7,8-tetrahydroimidazo[1,2-a]pyridin-3-yl]pyridine-4-carbonitrile]: 10 to 100 nM.
On the same count and under the same terms, to `COc1ccc(Nc2ccc(N)c(-c3c(C(F)(F)F)nc4ccccn34)n2)cc1` [Cpd 282, N^2-(4-methoxyphenyl)-6-[2-(trifluoromethyl)imidazo[1,2-a]pyridin-3-yl]pyridine-2,5-diamine] belongs 100 to 3000 nM; to `Cc1nc(Cl)c(Cl)n1-c1cncc(Nc2ccc(C(F)(F)F)cc2)n1` [Cpd 297, 6-(4,5-dichloro-2-methyl-1H-imidazol-1-yl)-N-[4-(trifluoromethyl)phenyl]pyrazin-2-amine], 100 to 3000 nM.
